ChEMBL document CHEMBL4354880, “Synthesis and Structure-Activity Relationships of Arylsulfonamides as AIMP2-DX2 Inhibitors for the Development of a Novel Anticancer Therapy” (J Med Chem, 2020)
Active and inactive are the calls of the source. No cut-off for these calls is given here.

Assays:
[1] = molecular target: T1, Aminoacyl tRNA synthase complex-interacting multifunctional protein 2 (Homo sapiens, UniProt Q13155); assay: Inhibition of nanoluciferase-tagged AIMP2 (unknown origin) expressed in human A549 cells measured after 4 hrs by luminescence assay; format: cell-based
T1 sequence (Q13155 whole entry): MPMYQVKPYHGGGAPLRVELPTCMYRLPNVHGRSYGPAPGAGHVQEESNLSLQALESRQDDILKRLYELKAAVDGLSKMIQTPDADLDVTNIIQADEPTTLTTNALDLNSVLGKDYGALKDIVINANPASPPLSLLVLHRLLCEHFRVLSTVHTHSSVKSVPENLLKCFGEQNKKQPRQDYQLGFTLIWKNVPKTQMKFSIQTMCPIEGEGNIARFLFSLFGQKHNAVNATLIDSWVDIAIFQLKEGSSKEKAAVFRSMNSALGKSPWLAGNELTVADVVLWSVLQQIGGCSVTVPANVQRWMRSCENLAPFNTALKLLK

[2] = molecular target: Aminoacyl tRNA synthase complex-interacting multifunctional protein 2 (Homo sapiens, UniProt Q13155); assay: Inhibition of nanoluciferase-tagged AIMP2 DX2 isoform (unknown origin) expressed in human A549 cells measured after 4 hrs by luminescence assay; format: cell-based
[3] = Cytotoxicity against human WI26 cells assessed as reduction in cell viability measured after 72 hrs by MTT assay
A549 [4] = assay: cells; settings: Homo sapiens, A549, 72 h
Description: Antiproliferative activity against human A549 cells measured after 72 hrs by MTT assay

A549 [5] = assay: Antiproliferative activity against human A549 cells stably expressing AIMP2 DX2 isoform measured after 72 hrs by MTT assay; format: functional, cell-based
NCI-H460 [6] = assay: Antitumor activity against human H460 cells xenografted in BALB/c SLC nu/nu mouse assessed as reduction in tumor volume at 50 mg/kg, ip administered every other day for 15 days and measured 4 times during compound dosing; format: functional, organism-based
NCI-H460 [7] = assay: Antitumor activity against human H460 cells xenografted in BALB/c SLC nu/nu mouse assessed as reduction in tumor weight at 50 mg/kg, ip administered every other day for 15 days and measured post-last dose; format: functional, organism-based
A549 [8] = settings: Homo sapiens, 5 uM
Description: Inhibition of LgBiT-tagged PRKACA-SmBiT-tagged PRKAR2A (unknown origin) protein-protein interaction expressed in human A549 cells at 5 uM measured after 4 hrs by luminescence assay

NCI-H460 [9] = assay: Cytotoxicity against human NCI-H460 3D spheroid cells assessed as reduction in cell viability measured after 72 hrs by Celltiter-glo assay
[10] = Toxicity in human H460 cells xenografted BALB/c SLC nu/nu mouse assessed as change in body weight at 50 mg/kg, ip administered every other day for 15 days and measured 4 times during compound dosing; settings: in vivo, 360 h

Compound	IC50 [1] [µM]	IC50 [2] [µM]	EC50 [3] [µM]	EC50 (A549 [4]) [µM]	Activity (A549 [5])	Activity (NCI-H460 [6])	Activity (NCI-H460 [7])	inhibition (A549 [8])	Activity (NCI-H460 [9])	Activity [10]
Cc1ccc(S(=O)(=O)N[C@@H](CC(C)C)C(=O)N2CCOCCOCCOCC2)cc1	> 100	40.1	> 100	40.8	–	–	–	–	–	–
COc1ccc(-c2csc(NC(=O)[C@H](Cc3c[nH]c4ccccc34)NS(=O)(=O)c3ccc(C)cc3)n2)cc1	–	–	> 100	1.2	Active	Active	Active	inactive	Dose-dependent effect	Non-Toxic
Cc1ccc(S(=O)(=O)N[C@@H](Cc2c[nH]c3ccccc23)C(=O)Nc2ccc(N3CCOCC3)cc2)cc1	–	–	> 100	14.2	–	–	–	–	–	–
